Active and inactive are the calls of the source. For most assays here, no stated cut-off is given here; in the data, actives have a measured IC50 and inactives only a lower limit.
Columns and labels:
P388/ADR = experiment: cells; format: functional; conditions: Mus musculus
P388 = experiment: cells; format: functional; conditions: Mus musculus
SN12K1 = experiment: cells; format: functional; conditions: Homo sapiens
[1] = target: Dual specificity tyrosine-phosphorylation-regulated kinase 1A (Rattus norvegicus, UniProt Q63470); format: biochemical, Homo sapiens
Large T antigen = Large T antigen (Simian virus 40, UniProt P03070); format: functional, Betapolyomavirus macacae;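 further: Confirmatory-stage PubChem screen for compounds that inhibit SV40 T antigen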
Chain of Large T antigen (P03070 whole entry): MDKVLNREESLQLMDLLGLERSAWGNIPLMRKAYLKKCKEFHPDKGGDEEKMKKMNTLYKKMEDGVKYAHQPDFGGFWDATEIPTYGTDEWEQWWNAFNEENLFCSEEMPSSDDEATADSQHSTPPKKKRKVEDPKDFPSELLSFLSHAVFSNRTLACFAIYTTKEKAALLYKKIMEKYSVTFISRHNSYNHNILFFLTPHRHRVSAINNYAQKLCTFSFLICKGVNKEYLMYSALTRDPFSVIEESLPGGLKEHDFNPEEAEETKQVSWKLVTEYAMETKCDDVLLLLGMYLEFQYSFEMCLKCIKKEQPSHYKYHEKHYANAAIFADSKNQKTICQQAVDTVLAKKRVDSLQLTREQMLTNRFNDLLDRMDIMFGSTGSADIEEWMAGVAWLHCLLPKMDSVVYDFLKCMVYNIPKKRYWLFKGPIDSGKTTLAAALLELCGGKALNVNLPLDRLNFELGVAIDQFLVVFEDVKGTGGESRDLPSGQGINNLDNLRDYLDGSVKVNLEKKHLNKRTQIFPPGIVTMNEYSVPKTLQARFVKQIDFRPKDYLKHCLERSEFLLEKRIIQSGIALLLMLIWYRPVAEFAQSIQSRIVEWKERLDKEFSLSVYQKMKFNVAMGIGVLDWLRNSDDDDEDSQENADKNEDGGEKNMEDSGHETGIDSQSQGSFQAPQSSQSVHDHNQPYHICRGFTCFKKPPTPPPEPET

[2] = target: T1, Histone-lysine N-methyltransferase NSD2 (Homo sapiens, UniProt O96028); format: biochemical
T1 sequence (O96028 whole entry): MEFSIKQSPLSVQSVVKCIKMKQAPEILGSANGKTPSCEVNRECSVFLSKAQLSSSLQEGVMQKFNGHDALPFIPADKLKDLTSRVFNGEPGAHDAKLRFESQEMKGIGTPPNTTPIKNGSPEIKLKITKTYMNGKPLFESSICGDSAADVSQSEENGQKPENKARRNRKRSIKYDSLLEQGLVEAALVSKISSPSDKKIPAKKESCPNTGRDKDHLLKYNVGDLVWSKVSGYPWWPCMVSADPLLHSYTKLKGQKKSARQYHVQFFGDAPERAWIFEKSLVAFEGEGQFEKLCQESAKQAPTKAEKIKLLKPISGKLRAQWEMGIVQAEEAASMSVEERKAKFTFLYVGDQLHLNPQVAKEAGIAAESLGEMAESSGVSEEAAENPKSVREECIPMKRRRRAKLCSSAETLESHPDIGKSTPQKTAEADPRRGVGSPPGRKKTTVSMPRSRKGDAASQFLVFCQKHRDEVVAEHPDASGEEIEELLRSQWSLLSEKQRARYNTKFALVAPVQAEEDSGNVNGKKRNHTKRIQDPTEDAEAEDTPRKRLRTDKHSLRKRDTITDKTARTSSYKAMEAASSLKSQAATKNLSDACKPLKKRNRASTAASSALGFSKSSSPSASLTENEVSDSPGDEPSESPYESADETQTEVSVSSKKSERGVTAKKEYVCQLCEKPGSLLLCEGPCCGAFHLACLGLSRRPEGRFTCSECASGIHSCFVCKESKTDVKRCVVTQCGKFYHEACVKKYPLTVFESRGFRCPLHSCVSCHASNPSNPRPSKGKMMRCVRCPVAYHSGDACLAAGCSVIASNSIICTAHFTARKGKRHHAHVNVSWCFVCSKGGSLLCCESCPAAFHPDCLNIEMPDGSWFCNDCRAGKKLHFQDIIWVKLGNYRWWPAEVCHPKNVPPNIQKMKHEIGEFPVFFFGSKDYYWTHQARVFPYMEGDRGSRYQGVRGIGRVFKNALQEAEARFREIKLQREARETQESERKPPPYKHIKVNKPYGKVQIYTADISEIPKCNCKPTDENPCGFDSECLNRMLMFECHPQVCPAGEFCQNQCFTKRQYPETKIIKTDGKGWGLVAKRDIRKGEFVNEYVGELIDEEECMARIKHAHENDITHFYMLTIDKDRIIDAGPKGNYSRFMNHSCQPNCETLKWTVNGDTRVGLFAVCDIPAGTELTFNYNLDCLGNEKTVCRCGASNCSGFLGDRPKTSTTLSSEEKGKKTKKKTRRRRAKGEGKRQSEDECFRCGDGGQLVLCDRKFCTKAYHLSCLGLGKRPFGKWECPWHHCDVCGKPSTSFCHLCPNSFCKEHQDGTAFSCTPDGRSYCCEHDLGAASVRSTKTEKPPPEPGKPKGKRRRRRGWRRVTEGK

[3] = target: T2, Sentrin-specific protease 6 (Homo sapiens, UniProt Q9GZR1); experiment: SAR Analysis of small molecule inhibitors of Sentrin-specific protease 6 (SENP6) using a Luminescent assay. [Related pubchem assays (depositor defined):AID2582, AID2599]; format: functional
T2 sequence (Q9GZR1 whole entry): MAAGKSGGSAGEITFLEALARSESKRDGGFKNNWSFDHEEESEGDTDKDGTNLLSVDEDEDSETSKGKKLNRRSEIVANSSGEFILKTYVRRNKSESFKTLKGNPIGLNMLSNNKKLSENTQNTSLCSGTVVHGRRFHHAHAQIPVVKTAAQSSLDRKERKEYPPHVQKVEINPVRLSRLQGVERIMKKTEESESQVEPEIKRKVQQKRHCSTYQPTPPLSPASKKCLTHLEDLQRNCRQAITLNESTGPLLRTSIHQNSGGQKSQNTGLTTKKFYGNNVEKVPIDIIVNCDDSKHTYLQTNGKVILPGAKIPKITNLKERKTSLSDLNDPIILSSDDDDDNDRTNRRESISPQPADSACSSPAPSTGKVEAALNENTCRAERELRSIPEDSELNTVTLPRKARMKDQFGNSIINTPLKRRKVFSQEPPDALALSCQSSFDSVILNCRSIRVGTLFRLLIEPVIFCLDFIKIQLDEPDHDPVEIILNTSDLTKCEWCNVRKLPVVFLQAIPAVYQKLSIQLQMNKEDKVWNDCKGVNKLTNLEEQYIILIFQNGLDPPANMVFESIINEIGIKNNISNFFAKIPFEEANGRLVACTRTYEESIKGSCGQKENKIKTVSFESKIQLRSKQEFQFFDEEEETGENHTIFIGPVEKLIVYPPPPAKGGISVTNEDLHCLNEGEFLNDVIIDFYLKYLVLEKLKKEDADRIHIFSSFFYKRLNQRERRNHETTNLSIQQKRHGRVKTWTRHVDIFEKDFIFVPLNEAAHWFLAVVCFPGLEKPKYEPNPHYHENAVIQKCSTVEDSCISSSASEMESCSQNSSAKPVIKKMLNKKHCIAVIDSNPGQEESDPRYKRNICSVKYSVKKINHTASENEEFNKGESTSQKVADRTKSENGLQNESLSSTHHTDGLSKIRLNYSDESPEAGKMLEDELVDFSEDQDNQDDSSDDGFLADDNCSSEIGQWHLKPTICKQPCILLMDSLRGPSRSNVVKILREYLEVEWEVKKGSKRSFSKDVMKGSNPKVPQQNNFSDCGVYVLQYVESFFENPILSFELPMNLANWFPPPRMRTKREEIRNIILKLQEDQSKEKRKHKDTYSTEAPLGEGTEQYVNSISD

[4] = target: T3, Sentrin-specific protease 8 (Homo sapiens, UniProt Q96LD8); experiment: SENP8 protease inhibitors, SAR follow-up, biochemical, luminescence (AID 504501); format: functional
T3 sequence (Q96LD8 whole entry): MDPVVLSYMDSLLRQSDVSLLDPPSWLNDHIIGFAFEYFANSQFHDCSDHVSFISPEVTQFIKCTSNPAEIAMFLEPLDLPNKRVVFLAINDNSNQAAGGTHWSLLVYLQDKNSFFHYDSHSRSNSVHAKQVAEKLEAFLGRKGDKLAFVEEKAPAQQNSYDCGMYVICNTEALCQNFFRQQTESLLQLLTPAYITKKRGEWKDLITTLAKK

Caspase-3 [5] = target: T4, Caspase-3 (Homo sapiens, UniProt P42574); experiment: SAR Analysis of small molecule inhibitors of Sentrin-specific proteases (SENPs) using a Caspase-3 Selectivity assay. [Related pubchem assays (depositor defined):AID2540, AID2599, AID434973, AID489001]; format: functional
T4 sequence (P42574 whole entry): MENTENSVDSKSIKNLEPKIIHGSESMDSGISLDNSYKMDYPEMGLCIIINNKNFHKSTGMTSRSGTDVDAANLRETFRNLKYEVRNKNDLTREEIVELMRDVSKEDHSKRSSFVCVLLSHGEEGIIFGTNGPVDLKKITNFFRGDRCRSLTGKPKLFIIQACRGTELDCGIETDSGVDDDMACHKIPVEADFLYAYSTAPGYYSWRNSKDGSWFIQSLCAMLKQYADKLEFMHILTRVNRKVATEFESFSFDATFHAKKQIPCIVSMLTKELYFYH

[6] = target: T5, Sentrin-specific protease 7 (Homo sapiens, UniProt Q9BQF6); experiment: SENP7 protease inhibitors, SAR follow-up, biochemical, luminescence (AID 504497); format: functional
T5 sequence (Q9BQF6 whole entry): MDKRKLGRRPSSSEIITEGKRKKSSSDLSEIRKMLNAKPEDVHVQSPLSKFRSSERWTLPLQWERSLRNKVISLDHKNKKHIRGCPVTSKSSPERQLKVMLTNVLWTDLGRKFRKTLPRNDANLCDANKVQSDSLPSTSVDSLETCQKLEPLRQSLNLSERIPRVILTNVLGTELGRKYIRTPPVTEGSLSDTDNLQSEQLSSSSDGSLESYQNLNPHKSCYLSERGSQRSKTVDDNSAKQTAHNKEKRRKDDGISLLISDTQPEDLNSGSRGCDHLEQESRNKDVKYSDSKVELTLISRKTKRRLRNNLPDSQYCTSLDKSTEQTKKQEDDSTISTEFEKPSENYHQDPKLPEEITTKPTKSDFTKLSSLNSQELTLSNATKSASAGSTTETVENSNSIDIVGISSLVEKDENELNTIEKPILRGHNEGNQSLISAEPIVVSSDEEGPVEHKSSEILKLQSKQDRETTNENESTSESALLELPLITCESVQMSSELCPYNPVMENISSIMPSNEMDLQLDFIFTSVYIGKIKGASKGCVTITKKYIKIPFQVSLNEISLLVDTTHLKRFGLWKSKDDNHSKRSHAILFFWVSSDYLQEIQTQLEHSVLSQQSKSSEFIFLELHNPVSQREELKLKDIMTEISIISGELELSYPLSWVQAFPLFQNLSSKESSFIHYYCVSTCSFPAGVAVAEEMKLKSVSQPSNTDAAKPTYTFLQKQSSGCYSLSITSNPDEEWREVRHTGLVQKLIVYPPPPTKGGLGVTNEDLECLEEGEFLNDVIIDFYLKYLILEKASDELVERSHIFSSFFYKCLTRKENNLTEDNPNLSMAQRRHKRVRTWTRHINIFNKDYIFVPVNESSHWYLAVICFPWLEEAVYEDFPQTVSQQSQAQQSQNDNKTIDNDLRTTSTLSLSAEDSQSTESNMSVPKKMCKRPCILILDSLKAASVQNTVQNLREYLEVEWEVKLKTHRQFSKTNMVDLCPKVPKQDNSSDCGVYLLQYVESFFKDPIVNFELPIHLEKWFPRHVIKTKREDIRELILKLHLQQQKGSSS

[7] = target: T2, Sentrin-specific protease 6; format: functional
[8] = target: T5, Sentrin-specific protease 7; format: functional
Caspase-3 [9] = target: T4, Caspase-3; format: functional
[10] = target: T3, Sentrin-specific protease 8; format: functional
[11] = Luminescence Cell-Based Dose Retest to Confirm Inhibitors of Cancer Stem Cells. [Related pubchem assays (depositor defined):AID2717, AID2721]; format: functional; conditions: Homo sapiens

SMILES	GI50 (P388/ADR)	GI50 (P388)	GI50 (SN12K1)	IC50 [3]	IC50 [4]	IC50 (Caspase-3 [5])	IC50 [6]	other results
O=C(O)/C=C/c1c[nH]c(=O)[nH]c1=O	> 500 µM (inactive)	> 500 µM (inactive)	> 500 µM (inactive)	–	–	–	–	–
N#C/C(=C/c1ccc(O)c(O)c1)c1nc2ccccc2[nH]1	–	–	–	–	–	–	–	AC50 [1]: 2.06 µM (active); IC50 (Large T antigen): 12.3 µM (active); AC50 [2]: 2.05 µM (active)
O=C(Nc1ccc(F)c(F)c1)c1ccc2c(c1)OCO2	–	–	–	8.66 µM (active)	8.53 µM (active)	3.11 µM (active)	2.85 µM (active)	–
O=C1/C(=C/c2cccc(F)c2)Oc2cc(O)ccc21	–	–	–	12 µM (active)	15.8 µM (active)	9.25 µM (active)	4.4 µM (active)	IC50 [7]: 15.9 µM (active); IC50 [8]: 6.09 µM (active); IC50 (Caspase-3 [9]): 18.2 µM (active); IC50 [10]: 2.29 µM (active)
N#Cc1c(NC(=O)c2ccc(Cn3cc(Br)cn3)o2)sc2c1CCCCC2	–	–	–	> 99 µM (inactive)	> 99 µM (inactive)	> 99 µM (inactive)	> 99 µM (inactive)	AC50 [11]: 2.97 µM (active)
COc1cc(OC)cc(C(=O)Nc2ccc(Nc3ccccc3)cc2)c1	–	–	–	–	–	–	–	IC50 [7]: 17.8 µM (active); AC50 [11]: 4.09 µM (active); IC50 [8]: 5.27 µM (active); IC50 (Caspase-3 [9]): 30.3 µM (active); IC50 [10]: 22.5 µM (active)
CCCCCSc1cc(OC)c(CCNC)cc1OC	–	–	–	–	–	–	–	AC50 [2]: 17.5 µM (active)
Nc1nc(N)c2nc(CNc3ccc(C(=O)NC(CCCNC(=O)c4ccccc4C(=O)O)C(=O)O)cc3)cnc2n1 (stereo unspecified)	< 0.01 µM (active)	< 0.01 µM (active)	< 0.01 µM (active)	–	–	–	–	–
O=C(Nc1nc2ccc(Cl)cc2s1)c1ccc(C(F)(F)F)cc1	–	–	–	> 99 µM (inactive)	> 99 µM (inactive)	> 99 µM (inactive)	> 99 µM (inactive)	–
CC(=O)Oc1ccccc1/C=C(\C)c1noc(-c2ccccc2O)n1	–	–	–	> 99 µM (inactive)	> 99 µM (inactive)	> 99 µM (inactive)	> 99 µM (inactive)	–
C[C@@]1(CO)[C@H](O)CC[C@@]2(C)[C@H]1CC[C@H]1C[C@@H]3C[C@@]12CC[C@@]3(O)COC(=O)CN	0.481 µM (active)	1.11 µM (active)	–	–	–	–	–	–
CCOC(=O)C(C)N1C(=O)c2ccccc2S1(=O)=O (stereo unspecified)	> 100 µM (inactive)	> 100 µM (inactive)	> 100 µM (inactive)	–	–	–	–	–
Cc1c2cnccc2c(C)c2c1c1ccccc1n2CCCCCCCl	22.8 µM (inactive)	1.77 µM (inactive)	30 µM (inactive)	–	–	–	–	–
CCCCCCCC/C=C\CCCCCCCCCCCC(=O)O [ERUCIC ACID]	14.4 µM (inactive)	11.2 µM (inactive)	9.62 µM (inactive)	–	–	–	–	–

From ChEMBL document CHEMBL1201862, “PubChem BioAssay data set” (2004)
